Assay results taken from ChEMBL document CHEMBL5329213, “Discovery of a novel GPR35 agonist with high and equipotent species potency for oral treatment of IBD” (Bioorg Med Chem, 2023).
pEC50: −log10 of the molar value. One block for each compound: values may come before it. The source made the active and inactive calls. The calls are words filed in the database; no cut-off is given here.

What was measured:
[1] = biological target: T1, G-protein coupled receptor 35 (Mus musculus, UniProt Q9ES90); assay: Agonist activity at mouse GPR35 expressed in HEK293 cells co-expressing Galpha16 assessed as increase in calcium mobilization by Fluo-4 AM dye based fluorescence assay; type: functional, cell-based
T1 sequence (Q9ES90 whole entry): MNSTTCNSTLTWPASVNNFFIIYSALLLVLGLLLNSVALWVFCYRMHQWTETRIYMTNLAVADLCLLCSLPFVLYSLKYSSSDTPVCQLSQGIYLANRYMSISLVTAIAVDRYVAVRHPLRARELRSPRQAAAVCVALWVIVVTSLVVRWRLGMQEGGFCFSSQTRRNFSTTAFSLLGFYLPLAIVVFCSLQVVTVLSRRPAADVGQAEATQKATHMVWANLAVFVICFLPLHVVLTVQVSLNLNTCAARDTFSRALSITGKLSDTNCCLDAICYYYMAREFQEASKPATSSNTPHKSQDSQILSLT

[2] = Agonist activity at rat GPR35 by beta-arrestin recruitment assay
[3] = biological target: T1, G-protein coupled receptor 35; assay: Agonist activity at mouse GPR35 by beta-arrestin recruitment assay; type: functional
[4] = biological target: T2, G-protein coupled receptor 35 (Homo sapiens, UniProt Q9HC97); assay: Agonist activity at human GPR35 expressed in HEK293 cells co-expressing Galpha16 assessed as increase in calcium mobilization by Fluo-4 AM dye based fluorescence assay; type: functional, cell-based
T2 sequence (Q9HC97 whole entry): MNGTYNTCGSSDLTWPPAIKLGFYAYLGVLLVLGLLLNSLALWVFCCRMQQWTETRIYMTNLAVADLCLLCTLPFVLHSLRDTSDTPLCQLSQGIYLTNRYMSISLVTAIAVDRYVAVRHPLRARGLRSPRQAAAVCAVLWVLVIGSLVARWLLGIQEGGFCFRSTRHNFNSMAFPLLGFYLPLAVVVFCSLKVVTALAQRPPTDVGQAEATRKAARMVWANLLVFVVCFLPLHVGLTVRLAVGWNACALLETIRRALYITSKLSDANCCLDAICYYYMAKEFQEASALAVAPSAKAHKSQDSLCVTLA

[5] = biological target: G-protein coupled receptor 35 (Mus musculus) (UniProt Q9ES90); assay: Agonist activity at mouse GPR35 expressed in HEK293 cells co-expressing Galpha16 assessed as increase in calcium mobilization by Fluo-4 AM dye based fluorescence assay relative to-iodoxamide; type: functional, cell-based; settings: filed as agonist
G-protein coupled receptor 35 (Mus musculus), sequence (Q9ES90 whole entry): as the sequence (Q9ES90 whole entry) above

[6] = biological target: T2, G-protein coupled receptor 35; assay: Agonist activity at human GPR35 by beta-arrestin recruitment assay; type: functional
Mus musculus [7] = assay: Anti-colitis activity against DSS-induced ulcerative colitis C57BL/6 mouse model assessed as reduction in colitis symptoms by measuring decrease in rectal bleeding at 200 mg/kg, po qd for 7 days administered via gavage; type: functional, organism-based; settings: time 7.0 day
Mus musculus [8] = assay: Anti-colitis activity against DSS-induced ulcerative colitis C57BL/6 mouse model assessed as reduction in colitis symptoms by measuring decrease in stool thinning at 200 mg/kg, po qd for 7 days administered via gavage; type: functional, organism-based; settings: time 7.0 day
Mus musculus [9] = assay: Anti-colitis activity against DSS-induced ulcerative colitis C57BL/6 mouse model assessed as reduction in colitis symptoms by measuring decrease in body weight loss at 200 mg/kg, po qd for 7 days administered via gavage; type: functional, organism-based; settings: time 7.0 day
[10] = Stability of the compound in plasma of DSS-induced ulcerative colitis C57BL/6 mouse model at 20 mg/kg, po qd for 7 days administered via gavage; type: ADME, organism-based; settings: in vivo, 168 h, time 7 day
[11] = Stability of the compound in mouse plasma; type: ADME, cell-free
[12] = Agonist activity at rat GPR35 expressed in HEK293 cells co-expressing Galpha16 assessed as increase in calcium mobilization by Fluo-4 AM dye based fluorescence assay

Structure (SMILES): CCOC(=O)C(=O)Nc1cc(C(=O)OCC(C)C)cc(NC(=O)C(=O)OCC)c1Cl
pEC50 [1]: 7.68

Structure (SMILES): CCOC(=O)C(=O)Nc1cc(Br)cc(NC(=O)C(=O)OCC)c1Cl
pEC50 [1]: 7.37

Structure (SMILES): O=C(Nc1cc(C(F)(F)F)cc(NC(=O)C(=O)OC2CC2)c1Cl)C(=O)OC1CC1
pEC50 [4]: 7.12
Emax [5]: 86%
pEC50 [1]: 6.92

Structure (SMILES): CN(C)c1c(NC(=O)C(=O)O)cc(C#N)cc1NC(=O)C(=O)O
pEC50 [1]: 5.04

Structure (SMILES): CCOC(=O)C(=O)Nc1cc(C#N)cc(NC(=O)C(=O)OCC)c1Cl [LODOXAMIDE ETHYL]
pEC50 [4]: 7.53
Emax [5]: 139%
pEC50 [1]: 6.58

Structure (SMILES): Nc1ccc(O)c(C(=O)O)c1
Activity (Mus musculus [7]): Active
Activity (Mus musculus [8]): Active
Activity (Mus musculus [9]): Active

Structure (SMILES): O=C(Nc1cc(C(F)(F)F)cc(NC(=O)C(=O)OC2CCCC2)c1Cl)C(=O)OC1CCCC1
pEC50 [4]: 5.98
Emax [5]: 91%
pEC50 [1]: 6.90

Structure (SMILES): COC(=O)C(=O)Nc1cc(C(F)(F)F)cc(NC(=O)C(=O)OC)c1Cl
pEC50 [1]: 7.57

Structure (SMILES): O=C(Nc1cc(C(F)(F)F)cc(NC(=O)C(=O)OC2CCCCC2)c1Cl)C(=O)OC1CCCCC1
pEC50 [1]: 7.21

Structure (SMILES): CCOC(=O)C(=O)Nc1cc(C(F)(F)F)cc(NC(=O)C(=O)OCC)c1Cl
pEC50 [1]: 7.20
Stability [10]: Unstable
Stability [11]: Unstable

Structure (SMILES): COc1c(NC(=O)C(=O)O)cc(C#N)cc1NC(=O)C(=O)O
pEC50 [1]: 5.51

Structure (SMILES): N#Cc1cc(NC(=O)C(=O)O)cc(NC(=O)C(=O)O)c1
pEC50 [1]: 6.42

Continued, values first:

pEC50 [1]: < 5.00
Structure (SMILES): Cc1c(NC(=O)C(=O)O)cc(C(=O)O)cc1NC(=O)C(=O)O

pEC50 [2]: 7.00
pEC50 [3]: 6.00
Structure (SMILES): CCCOc1ccccc1-c1nc2[nH]nnc2c(=O)[nH]1 [ZAPRINAST]

pEC50 [1]: 5.44
Structure (SMILES): O=C(O)C(=O)Nc1cccc(NC(=O)C(=O)O)c1Cl

pEC50 [2]: 5.10
Structure (SMILES): O=C1N/C(=N/c2ccccc2F)S/C1=C\c1ccc(C(=O)O)cc1

pEC50 [2]: 5.40
pEC50 [3]: 4.24
pEC50 [6]: 5.10
Structure (SMILES): O=C(O)c1cc(=O)c2c(OCC(O)COc3cccc4oc(C(=O)O)cc(=O)c34)cccc2o1 [CROMOLYN]

pEC50 [1]: 7.16
Structure (SMILES): Cc1cc(NC(=O)C(=O)O)c(Cl)c(NC(=O)C(=O)O)c1

pEC50 [2]: 8.00
Structure (SMILES): CCCCc1cc2c(=O)cc(C(=O)O)[nH]c2c2c(=O)cc(C(=O)O)[nH]c12 [BUFROLIN]

pEC50 [1]: 5.49
Structure (SMILES): CCOC(=O)C(=O)Nc1cccc(NC(=O)C(=O)OCC)c1Cl

pEC50 [4]: 6.90
Emax [5]: 75%
pEC50 [1]: 5.28
Structure (SMILES): O=C(O)C(=O)Nc1cc(C(=O)O)cc(NC(=O)C(=O)O)c1Cl

pEC50 [1]: 7.91
Structure (SMILES): O=C(O)C(=O)Nc1cc(NC(=O)C(=O)O)cc(C(F)(F)F)c1

pEC50 [4]: 5.37
Emax [5]: 105%
pEC50 [1]: 5.09
Structure (SMILES): O=C(O)C(=O)Nc1cccc(NC(=O)C(=O)O)c1

pEC50 [2]: < 4.00
Structure (SMILES): O=C(O)c1cc2ccccc2c(Cc2c(O)c(C(=O)O)cc3ccccc23)c1O [PAMOIC ACID]

pEC50 [1]: 7.25
Structure (SMILES): O=C(O)C(=O)Nc1cc(C(F)(F)F)cc(NC(=O)C(=O)O)c1Cl

pEC50 [4]: 7.59
Emax [5]: 106%
pEC50 [12]: 7.46
pEC50 [1]: 7.55
Structure (SMILES): O=C(O)C(=O)Nc1cc(Br)cc(NC(=O)C(=O)O)c1Cl

pEC50 [4]: 7.39
pEC50 [2]: 7.89
pEC50 [6]: 8.40
pEC50 [12]: 7.67
pEC50 [1]: 6.37
Structure (SMILES): N#Cc1cc(NC(=O)C(=O)O)c(Cl)c(NC(=O)C(=O)O)c1 [LODOXAMIDE]

pEC50 [2]: 5.85
Structure (SMILES): COc1ccc(C(=O)Nc2cc(Br)cc3c(=O)cc(C(=O)O)oc23)cc1
